# Test results published in patent publication US10301630B2, “Methods and compositions for unsilencing imprinted genes” (The University of North Carolina at Chapel Hill, priority 2010, dated 2019).
# Test system: paternal Ube3a allele in brain
# Test: Intracerebroventricular delivery, paternal Ube3a in brain
# Format: in vivo, mouse
# Protocol: In order to unsilence paternal Ube3a in vivo with an emphasis on brain, I.C.V. with osmotic minipump was performed. […] Paternal Ube3a-YFP mice were anesthetized with Ketamine/Xylazine (120 mg/kg; 9 mg/kg) and positioned in a stereotaxic head frame. The scalp is shaved and cut, and the skull exposed. The local anesthetic (Bupivacaine, 2.5 mg/ml) is applied on the top of skull and mineral oil is applied on the eyes of the mice. Acetone is applied on the skull to remove any lipid tissues on the skull as well as to dry the skull surface for optimal adhesion. Next, a cannula (Brain Infusion Kit 1, DURECT Corporation) is positioned into a lateral ventricle at the following coordinates (−0.3 mm A/P, +/−1.0 mm M/L, −3.0 mm D/V). The free end of the cannula is connected to an Alzet osmotic minipump via a 2.5-cm-long piece of polyethylene (PE) tubing (cat. no. 0007750, DURECT Corporation). […] The filled pumps are incubated in sterile saline at 37° C. for at least 4 to 6 hours for priming before being implanted under the dorsal skin of the mouse's back. A needle driver is used to create a subcutaneous pocket in the scapula region to accommodate filled pumps. The cannula base and the attached piece of PE tubing are fixed to the skull with loctite cyanoacrylic. The incision site is closed with prolene suture. During and after surgery, mice are placed on a heating pad. Body weight of mice is recorded daily to assess mouse health. Seven days following minipump implantation, mice are sacrificed following pentobarbital overdose (150 mg/kg, I.P.) and brains are removed for immunofluorescence staining or Western blot analysis.
# For immunocytochemistry in brain tissues, mice were perfused with 4% PFA in 0.1M PBS, postfixed overnight, and cryoprotected with 20% sucrose in 0.1M phosphate buffer (PB), pH=7.4 for two days. 60 μm sections were collected and permeabilized with 0.3% Triton X-100 in 0.1M PB for 30 min, and blocked by 5% goat serum for 1 hr. Sections were incubated with rabbit polyclonal antibody to GFP (1:1000, Novus Biologicals, NB600-308) at 4° C. overnight and then incubated with Alexa Fluor 488 goat antibody to rabbit IgG and DAPI for 2 hr at room temperature. Images were acquired using a Zeiss LSM 510 and 710 confocal microscopes.
# For optical intensity measurement in selected brain regions, sections were imaged using a Zeiss LSM 510 confocal microscope. With custom macros created using ImageJ software^34, optical intensity of UBE3A-YFP was measured in different regions of hippocampus and striatum from vehicle- and topotecan-treated mice. Image intensity levels were normalized to background intensities from appropriate regions in vehicle-treated mice. Brain sections between Bregma −1.22 mm and −2.06 mm were chosen for analysis (n=5 sections/mouse for hippocampus and n=3 to 5 sections/mouse for striatum).
# Mice with paternal Ube3a-YFP (Ube3a^m+/pYFP) were anesthetized with ketamine/xylazine (120 mg/kg; 9 mg/kg) and positioned in a stereotaxic apparatus. The scalp was shaved and cut, and the skull exposed. The local anesthetic (bupivacaine, 2.5 mg/ml) was applied to the skull, and mineral oil was applied to protect the eyes of the mice. Acetone was applied on the skull to remove any lipid tissues on the skull as well as to dry the skull surface for optimal adhesion. Next, a cannula (Brain Infusion Kit 1, DURECT Corporation) was positioned into a lateral ventricle at the following coordinates (−0.3 mm A/P, +1.0 mm M/L, −2.5 mm DN), as described^40. The free end of the cannula was connected to a mini-osmotic pump (Alzet, Model 2001 or 2002) via a 2.5 cm piece of polyethylene (PE) tubing (DURECT Corporation). […] The filled pumps were incubated in sterile saline at 37° C. for at least 4 hr before being implanted under the dorsal skin of the mouse's back. The cannula base and the attached piece of PE tubing were fixed to the skull with Loctite cyanoacrylic 454. The incision site was closed with prolene suture. […]
Compound,Ube3a levels in Angelman syndrome model mice (i.c.v.),mice with robust unsilencing in cerebral cortex near the infused ventricle (i.c.v. 3.74 μg/h for two weeks),"unsilencing of paternal Ube3a, cerebellum (i.c.v. 3.74 μg/h for two weeks)","unsilencing of paternal Ube3a, contralateral (non-infused) hemisphere (i.c.v. 3.74 μg/h for two weeks)","unsilencing of paternal Ube3a, infused hemisphere (i.c.v. 3.74 μg/h for two weeks, mini-osmotic pump)","unsilencing of paternal Ube3a, cerebellar Purkinje neurons (i.c.v. 21.6 μg/h for five days)","paternal Ube3a-YFP protein in brain after ICV infusion (Example 3) (i.c.v. osmotic minipump, one week)"
CCc1c2c(nc3ccc(OC(=O)N4CCC(N5CCCCC5)CC4)cc13)-c1cc3c(c(=O)n1C2)COC(=O)[C@]3(O)CC [Irinotecan],significantly increased Ube3a levels,–,–,–,–,–,–
CC[C@@]1(O)C(=O)OCc2c1cc1n(c2=O)Cc2cc3c(CN(C)C)c(O)ccc3nc2-1 [Topotecan],–,two of five mice,no effect in the cerebellum,only a modest effect,"unsilenced paternal Ube3a in the hippocampus, striatum, and cerebral cortex of the infused hemisphere",did unsilence the paternal allele of Ube3a in Purkinje neurons of the cerebellum,increased paternal Ube3a-YFP protein levels throughout the brain
